Data: publication PMC10385824, “Antiproliferative and Tubulin-Destabilising Effects of 3-(Prop-1-en-2-yl)azetidin-2-Ones and Related Compounds in MCF-7 and MDA-MB-231 Breast Cancer Cells” (Pharmaceuticals, 2023)
Where two headings read alike, the source gives them in different places.

Key:
[1] = tested on: MCF-7 cells; assay: Lactate dehydrogenase (LDH) cytotoxicity assay; type: cell-based, human; details: 10 μM, 72 h, LDH release
Experimental: The cytotoxic effects of the compounds were determined using the CytoTox 96 non-radioactive cytotoxicity assay (Promega) as previously reported. The MCF-7 cells were seeded in 96-well plates and incubated for 24 h. Cells were treated with test compounds 16, 26 and 30 at 10 μM concentration as described in the cell viability assay above. At 72 hr, 20 μL of ‘lysis solution (10X)’ was added to the control wells to ensure 100% death. The cells were incubated for a further 1 hr. Supernatant (50 μL) was removed from each well and transferred to a 96-well plate. Cytotox 96R Reagent (50 μL) was added to each well, and the plate was retained in darkness at 20 °C for 30 min. 50 μL of ‘stop solution’ was then added to each well, and the absorbance was determined at 490 nm using a Dynatech MR5000 plate reader. The cell death (%) at 10 μM was determined.

[2] = tested on: MDA-MB-231 human breast cancer cells; assay: Alamar Blue cell viability (antiproliferative) assay; type: cell-based
[3] = HPLC stability study in plasma; type: in vitro ADME, human; details: buffered plasma (plasma:buffer 1:9); for half-life at 41.3 µg/mL: human blood plasma, read-out: half-life (t½); for remaining at 24 h, 41.3 µg/mL: study over 24 h
Experimental: Analytical high-performance liquid chromatography (HPLC) stability studies were performed as follows using Symmetry® column (C18, 5 µm, 4.6 × 150 mm), Waters 2487 Dual Wavelength Absorbance detector, Waters 1525 binary HPLC pump and Waters 717 plus Autosampler (Waters Corporation, Milford, MA, USA) with detection at 254 nm as previously described. Samples were analysed using mobile phase acetonitrile (80%): water (20%), flow rate (1 mL/min) over 10 min. […] First, 30 µL of compound stock solution was diluted with appropriate buffer (1 mL); sample was shaken and injected immediately. Samples were withdrawn and analysed at the following time points: t = 0 min, 5 min, 30 min, 60 min, 90 min, 120 min, 24 h and 48 h. (ii) Thermal stability: Compound stock solution (1 mL) was placed in a glass vial on a heating block for 4 h at 60 °C. The sample was then cooled, diluted (acetonitrile) and analysed. (ii) Oxidising conditions: H2O2 (3%, 0.2 mL) was added to compound stock solution (0.8 mL). The vial was vortexed and retained at 20 °C, and the sample was analysed at 60, 120 180 and 240 min. (iv) Acidic conditions: HCl (0.1 M, 0.2 mL) was added to stock solutions (0.8 mL). The vial was mixed by vortex and retained at 20 °C. A sample was neutralised with NaOH (0.1 M, 0.2 mL) at 60, 120, 180 and 240 min, followed by HPLC analysis. (v) Alkaline conditions: NaOH (0.1 M, 0.2 mL) was added to stock solution (0.8 mL) of the compound in a vial. The vial was mixed by vortex and retained at 20 °C. A sample was neutralised with HCl (0.1 M, 0.2 mL) at 60, 120, 180 and 240 min followed by HPLC analysis. (vi) Photostability study: Compounds (stock solution, 1 mL) were placed in a vial, exposed to UV light for 4 h and then analysed by HPLC as above. Stability studies in plasma: Approval for this study was obtained from the School of Pharmacy and Pharmaceutical Sciences Trinity College Dublin Research Ethics Committee (2020–06-01-MS). Following informed consent, blood was withdrawn from healthy volunteers, and plasma was obtained by centrifugation and kept at −20 °C until further use. […] A sample (250 µL) was then added to the Eppendorf tube containing ZnSO4.7H2O solution (500 µL) (2% w/v ZnSO4 solution in acetonitrile:water, 1:1). The samples were centrifuged (10,000 rpm, 3 min), filtered (0.2 micron filter) and analysed by HPLC as above. Further samples were taken at one-hour intervals.

[4] = tested on: UACC-257; assay: NCI-60 SRB screen, melanoma; type: cell-based, human; details: for GI50: Homo sapiens
[5] = tested on: SF-268; assay: NCI-60 SRB screen, CNS cancer; type: cell-based, human; details: 48 h; for GI50: Homo sapiens, five dose 0.01–100 µM
Experimental: The initial NCI 60 cell line screen used the sulforhodamine B (SRB) protein assay, at one dose concentration (10 μM), and subsequently, a five-dose screening in the concentration range 0.01–100 μM was carried out.

[6] = tested on: microtubule network in MCF-7 cells; assay: Immunofluorescence confocal microscopy; type: cell-based, human; details: 16 h
Experimental: CA-4 and β-lactam 9q depolymerise the microtubule network in MCF-7 cells. […] After 16 h, the cells were fixed in 4% paraformaldehyde and stained with mouse monoclonal anti-α-tubulin−FITC antibody (clone DM1A) (green), Alexa Fluor 488 dye, and counterstained with DAPI (blue). The confocal images were obtained by Leica SP8 confocal microscopy with Leica application suite X software. Representative confocal micrograph images of three separate experiments are shown above [scale bar: […]].
The effects of β-lactam 9q on MCF-7 cytoskeleton were determined using confocal microscopy as previously described. MCF-7 cells were seeded at 1 × 10^5 cells/mL in glass slides with eight chambers (BD Biosciences, San Jose, CA, USA). […] Following treatment, cells were gently washed in PBS, fixed for 20 min with 4% paraformaldehyde in PBS and permeabilised in 0.5% Triton X-100. The cells were then washed with PBS-T (PBS containing 0.1% Tween), blocked in 5% bovine serum albumin diluted in PBS-T and incubated with mouse monoclonal anti-α-tubulin-FITC antibody (clone DM1A) (Sigma, Milwaulkee, WI, USA) (1:100) for 2 h at 20 °C. The cells were washed again with PBS-T and incubated with Alexa Fluor 488 dye (1:450) for 1 h at 20 °C. Following washes in PBST, the cells were mounted in Ultra Cruz Mounting Media (Santa Cruz Biotechnology, Santa Cruz, CA, USA), which contained 4,6-diamino-2-phenolindol dihydrochloride (DAPI). The immunofluorescence cell images were captured by Leica SP8 confocal microscopy and analysed with Leica application suite X software. Microscopy experiments were performed on three independent occasions, and the images for these experiments were obtained on the same day using identical conditions.

[7] = tested on: MCF-7 cells; assay: Annexin-V/PI apoptosis assay; details: for cells undergoing apoptosis (early+late): 72 h
Experimental: Flow cytometry using annexin-V and propidium iodide (PI) was used to detect apoptotic cell death in MCF-7 cells. […] Cells were then incubated on ice in darkness for 30 min in annexin-V-containing binding buffer [1:100]. Cells were washed once in binding buffer and then re-suspended in propidium iodide containing binding buffer [1:1000]. Cells were analysed directly using the BD Accuri flow cytometer and Prism software. Four cell populations are produced in this assay: annexin-V- and PI-negative (Q4, healthy cells), annexin-V-positive and PI-negative (Q3, early apoptosis), annexin-V- and PI-positive (Q2, late apoptosis) and annexin-V-negative and PI-positive (Q1, necrosis). CA-4 (50 nM) was used as the positive control for apoptosis.
Cells were then collected and processed for analysis.

[8] = tested on: colchicine-binding site of β-tubulin (Cys239, Cys354) in MCF-7 cells; assay: Colchicine-binding site assay (EBI crosslinking, Western blot); details: 10 μM, 2 h, then EBI
Experimental: MCF-7 cells were seeded at density of 5 × 10^4 cells/well in 6-well plates and incubated overnight. […] Samples were separated by SDS-PAGE, transferred to polyvinylidene difluoride membranes and examined with β-tubulin antibodies (Sigma-Aldrich, Milwaulkee, WI, USA) [99].
Cells were harvested, lysed and then analysed using sedimentation followed by Western blotting to identify β-tubulin and β-tubulin-EBI adduct.

[9] = HPLC stability study in phosphate buffers; type: physicochemical; details: for half-life at 14.6 µg/mL / remaining at 24 h, 14.6 µg/mL / remaining at 264 h, 14.6 µg/mL: phosphate buffer; for half-life at 14.6 µg/mL: read-out: half-life (t½) (converted); for remaining at 24 h, 14.6 µg/mL: study over 24 h; for remaining at 264 h, 14.6 µg/mL: study over 264 h
[10] = Homo sapiens, MCF7, 72 h, read-out: Viable
[11] = UACC-257, five dose 0.01–100 µM, 48 h, read-out: GI50

C=C(C)C1C(=O)N(c2cc(OC)c(OC)c(OC)c2)C1c1ccc(OC)cc1 (stereo not shown) [9h, 4-(4-Methoxyphenyl)-1-(3,4,5-trimethoxyphenyl)-3-(prop-1-en-2-yl)azetidin-2-one]
cell death [1]: 30%
IC50 ([2]; read-out: IC50): 31.3 nM

C=C(C)C1C(=O)N(c2cc(OC)c(OC)c(OC)c2)C1c1ccc(OC)c(O)c1 (stereo not shown) [9q, 4-(3-Hydroxy-4-methoxyphenyl)-1-(3,4,5-trimethoxyphenyl)-3-(prop-1-en-2-yl)azetidin-2-one]
half-life at 41.3 µg/mL [3]: > 24 h
remaining at 24 h, 41.3 µg/mL ([3]; human, Plasma): 80%
cell death [1]: 32%
% Growth ([4]; UACC-257, one dose 10 µM, 48 h): 74.47%
GI50 [5]: 22.9 nM
% Growth ([5]; one dose 10 µM): 19.27%
effect on microtubule network [6]: microtubule formation was inhibited and resulted in depolymerised microtubules
cells undergoing apoptosis (early+late) ([7]; 50 nM): 27%
cells undergoing apoptosis (early+late) ([7]; 500 nM): 38.9%
viability at 0.05 µM [7, 10]: 69.2%
viability at 0.5 µM [7, 10]: 57%
IC50 ([2]; read-out: IC50): 23.9 nM
formation of β-tubulin-EBI adduct [8]: formation of the EBI adduct was prevented
half-life at 14.6 µg/mL ([9]; pH 4): 13 h
half-life at 14.6 µg/mL ([9]; pH 7.4): 13 h
half-life at 14.6 µg/mL ([9]; pH 9): 6 h
remaining at 24 h, 14.6 µg/mL ([9]; pH 4.0): 33%
remaining at 24 h, 14.6 µg/mL ([9]; pH 7.4): 35%
remaining at 24 h, 14.6 µg/mL ([9]; pH 9.0): 34%

C=C(C)C1C(=O)N(c2cc(OC)c(OC)c(OC)c2)C1c1ccc(OC)c(N)c1 (stereo not shown) [9s, 4-(3-Amino-4-methoxyphenyl)-1-(3,4,5-trimethoxyphenyl)-3-(prop-1-en-2-yl)azetidin-2-one]
GI50 [4, 11]: > 100000 nM

C=CCC1C(=O)N(c2cc(OC)c(OC)c(OC)c2)C1c1ccc(OC)c(O)c1 (stereo not shown) [10p, 4-(3-Hydroxy-4-methoxyphenyl)-1-(3,4,5-trimethoxyphenyl)-3-allylazetidin-2-one]
remaining at 264 h, 41.3 µg/mL ([3]; human, Plasma, study over 264 h): 97%
IC50 ([2]; read-out: IC50): 27 nM
compound remaining ([9]; all pH values (4, 7.4, 9), after 11 days): over 95%
remaining at 264 h, 14.6 µg/mL ([9]; pH 4.0): 98%
remaining at 264 h, 14.6 µg/mL ([9]; pH 7.4): 99%
remaining at 264 h, 14.6 µg/mL ([9]; pH 9.0): 96%
half-life at 14.6 µg/mL ([9]; pH range studied, medium not specified): > 24 h

C=CC=CC1C(=O)N(c2cc(OC)c(OC)c(OC)c2)C1c1ccc(OC)cc1 (stereo not shown) [11h, 3-(Buta-1,3-dienyl)-4-(4-methoxyphenyl)-1-(3,4,5-trimethoxyphenyl)azetidin-2-one]
GI50 ([4]; UACC-257, 48 h): 11200 nM
IC50 ([2]; read-out: IC50): 31 nM

C=C/C=C/C1C(=O)N(c2cc(OC)c(OC)c(OC)c2)C1c1ccc(OC)c(N)c1 (stereo not shown) [11r, (E)-4-(3-Amino-4-methoxyphenyl)-3-(buta-1,3-dien-1-yl)-1-(3,4,5-trimethoxyphenyl)azetidin-2-one]
IC50 ([2]; read-out: IC50): 33 nM

C=C(C)C1C(=O)N(c2cc(OC)c(OC)c(OC)c2)C1c1ccc(OC)c(OP(=O)(O)O)c1 (stereo not shown) [15a, 2-Methoxy-5-(4-oxo-3-(prop-1-en-2-yl)-1-(3,4,5-trimethoxyphenyl)azetidin-2-yl)-phenyl dihydrogen phosphate]
half-life at 41.3 µg/mL [3]: > 24 h
remaining at 24 h, 41.3 µg/mL ([3]; human, Plasma): 97%
GI50 [4, 11]: > 100000 nM
GI50 [5]: 98.1 nM
IC50 ([2]; 72 h, eight concentrations 0.001-50 μM, mean ± SEM, read-out: Antiproliferative Activity IC50): 32 ± 5 nM
half-life at 14.6 µg/mL ([9]; pH 4): > 24 h
half-life at 14.6 µg/mL ([9]; pH 7.4): > 24 h
remaining at 24 h, 14.6 µg/mL ([9]; pH 4.0): 96%
remaining at 24 h, 14.6 µg/mL ([9]; pH 7.4): 98%

COc1ccc(C2C(C(C)C)C(=O)N2c2cc(OC)c(OC)c(OC)c2)cc1OP(=O)(O)O (stereo not shown) [15b, 5-(3-Isopropyl-1-(3,4,5-trimethoxyphenyl)-4-oxoazetidin-2-yl)-2-methoxyphenyl dihydrogen phosphate]
GI50 [4, 11]: > 100000 nM
GI50 [5]: 447 nM
